The half-life is the time needed for the level to fall by half in the phase considered. A low value points to fast loss. As a reminder, the IC50 is the point on the concentration scale where inhibition reaches its midpoint.

For 13 compounds, half-life and IC50 results are on record in ChEMBL document CHEMBL4417631, “Oral peptide inhibitors of interleukin-23 receptor and their use to treat inflammatory bowel diseases” (2017).

Series [1] in a line: Half life in simulated intestinal fluid at 20 uM by LC-MS/MS analysis. The class given is ADME.
A short description of series [2]: Half life in simulated gastric fluid at 20 uM by LC-MS/MS analysis. The class given is ADME.
Series [3] addresses T1, Interleukin-23 receptor (Homo sapiens, UniProt Q5VWK5).
T1 sequence (Q5VWK5 whole entry): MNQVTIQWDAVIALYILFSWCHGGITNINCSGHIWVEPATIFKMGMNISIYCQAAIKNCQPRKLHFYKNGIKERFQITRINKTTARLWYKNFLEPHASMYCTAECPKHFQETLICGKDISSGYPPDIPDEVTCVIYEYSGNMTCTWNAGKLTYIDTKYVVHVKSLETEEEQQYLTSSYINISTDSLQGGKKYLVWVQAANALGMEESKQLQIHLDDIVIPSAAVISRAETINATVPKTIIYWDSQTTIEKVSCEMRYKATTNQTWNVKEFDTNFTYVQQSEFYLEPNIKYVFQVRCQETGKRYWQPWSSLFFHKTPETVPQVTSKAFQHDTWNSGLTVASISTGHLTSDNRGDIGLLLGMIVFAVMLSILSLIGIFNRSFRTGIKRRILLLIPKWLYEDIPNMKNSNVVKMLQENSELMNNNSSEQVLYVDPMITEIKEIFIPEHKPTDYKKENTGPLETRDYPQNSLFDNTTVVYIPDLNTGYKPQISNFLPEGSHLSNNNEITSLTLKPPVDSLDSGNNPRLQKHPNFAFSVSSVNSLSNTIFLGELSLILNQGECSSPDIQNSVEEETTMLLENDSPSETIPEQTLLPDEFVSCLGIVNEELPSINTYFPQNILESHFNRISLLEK
Put plainly: Inhibition of interleukin-23 receptor in human DB cells assessed as reduction in IL-23-stimulated STAT3 phosphorylation incubated for 30 mins by HTRF assay. The class given is cell-based. Background: In TR-FRET formats the signal depends on donor and acceptor labels being close together.

In series [4] the target is T1, Interleukin-23 receptor. Put plainly: Inhibition of interleukin-23 binding to human interleukin-23 receptor incubated for 2 hrs by competitive binding ELISA. (In general: ELISA stands for enzyme-linked immunosorbent assay.)

As to `CC[C@H](NC(=O)[C@H](CC(N)=O)NC(=O)[C@H](CCCCNC(C)=O)NC(=O)C(C)(C)NC(=O)[C@H](Cc1ccc2ccccc2c1)NC(=O)[C@H](Cc1ccc(OC)cc1)NC(=O)[C@@H](NC(=O)[C@H](CCC(N)=O)NC(=O)[C@H](Cc1c[nH]c2ccccc12)NC(=O)[C@@H](NC(=O)[C@H](CC(N)=O)NC(=O)[C@@H](NC(C)=O)C(C)(C)S)[C@@H](C)O)C(C)(C)S)C(N)=O`, the values for the half-life at 20 µM in series [1] and in series [2] were 3 to 6 h and greater than 6 h, respectively. Moreover, at Interleukin-23 receptor [3], the IC50 is less than 0.01 µM.
On the same counts, the results for `CC(=O)NCCCC[C@H](NC(=O)C(C)(C)NC(=O)[C@H](Cc1ccc2ccccc2c1)NC(=O)[C@H](Cc1ccc(OCCN)cc1)NC(=O)[C@@H](NC(=O)[C@H](CCC(N)=O)NC(=O)[C@H](Cc1c[nH]c2ccccc12)NC(=O)[C@@H](NC(=O)[C@H](CC(N)=O)NC(=O)[C@@H](NC(C)=O)C(C)(C)S)[C@@H](C)O)C(C)(C)S)C(=O)N[C@@H](CC(N)=O)C(=O)N[C@@H](C)C(N)=O` are greater than 6 h, greater than 6 h and less than 0.01 µM.
On the same counts, the results for `CC(=O)N[C@H](C(=O)N[C@@H](CC(N)=O)C(=O)N[C@H](C(=O)N[C@@H](Cc1c[nH]c2ccccc12)C(=O)N[C@@H](CCC(N)=O)C(=O)N[C@H](C(=O)N[C@@H](Cc1ccc(OCCN)cc1)C(=O)N[C@@H](Cc1ccc2ccccc2c1)C(=O)N[C@@H](CCC(C)C)C(=O)N[C@@H](CCC(=O)O)C(=O)N[C@@H](CC(N)=O)C(=O)N[C@@H](C)C(N)=O)C(C)(C)S)[C@@H](C)O)C(C)(C)S` are 1 to 2 h, less than 1 h and less than 0.01 µM.
Take `COc1ccc(C[C@H](NC(=O)[C@@H](NC(=O)[C@H](CCC(N)=O)NC(=O)[C@H](Cc2c[nH]c3ccccc23)NC(=O)[C@@H](NC(=O)[C@H](CC(N)=O)NC(=O)[C@@H](NC(C)=O)C(C)(C)S)[C@@H](C)O)C(C)(C)S)C(=O)N[C@@H](Cc2ccc3ccccc3c2)C(=O)NC2(C(=O)N[C@@H](CCCCNC(C)=O)C(=O)N[C@@H](CC(N)=O)C(=O)N[C@@H](CC(N)=O)C(N)=O)CCOCC2)cc1`: the half-life at 20 µM in series [1] and in series [2] was greater than 6 h in each case.
On to `CC(=O)NCCCC[C@H](NC(=O)C(C)(C)NC(=O)[C@H](Cc1ccc2ccccc2c1)NC(=O)[C@H](Cc1ccc(OCCN)cc1)NC(=O)[C@@H](NC(=O)[C@H](CCC(N)=O)NC(=O)[C@H](Cc1c[nH]c2ccccc12)NC(=O)[C@@H](NC(=O)[C@H](CC(N)=O)NC(=O)[C@@H](NC(=O)[C@@H](Cc1ccccc1)NC(C)=O)C(C)(C)S)[C@@H](C)O)C(C)(C)S)C(=O)N[C@@H](CC(N)=O)C(=O)N[C@@H](CC(N)=O)C(N)=O`, for which the half-life at 20 µM in series [1] and in series [2] was greater than 6 h in each case.
Regarding `CC(=O)NCCCC[C@H](NC(=O)[C@](C)(CC(C)C)NC(=O)[C@H](Cc1ccc2ccccc2c1)NC(=O)[C@H](Cc1ccc(C(N)=O)cc1)NC(=O)[C@@H](NC(=O)[C@H](CCC(N)=O)NC(=O)[C@H](Cc1c[nH]c2ccccc12)NC(=O)[C@@H](NC(=O)[C@H](CC(N)=O)NC(=O)[C@@H](NC(C)=O)C(C)(C)S)[C@@H](C)O)C(C)(C)S)C(=O)N[C@@H](CC(N)=O)C(=O)N[C@@H](CC(N)=O)C(N)=O`, the half-life at 20 µM in series [1] and in series [2] was greater than 6 h each time.
As for `CC(=O)NCCCC[C@](C)(NC(=O)[C@H](Cc1ccc2ccccc2c1)NC(=O)[C@H](Cc1ccc(OCCNC(C)=O)cc1)NC(=O)[C@@H](NC(=O)[C@H](CCC(N)=O)NC(=O)[C@H](Cc1c[nH]c2ccccc12)NC(=O)[C@@H](NC(=O)[C@](C)(CCCNC(C)=O)NC(=O)[C@@H](NC(C)=O)C(C)(C)S)[C@@H](C)O)C(C)(C)S)C(=O)N[C@@H](CCC(=O)O)C(=O)N[C@@H](CC(N)=O)C(=O)NCC(N)=O`, the half-life at 20 µM in series [1] was 1 to 2 h; in series [2], 3 to 6 h. On Interleukin-23 receptor [4], the IC50 was in the range of 0.1 to 1 µM.
Take `CC(=O)N[C@@H](CCCNC(=N)N)C(=O)N[C@H]1CCSC[C@@H](C(=O)N[C@@H](Cc2ccc(OCCN)cc2)C(=O)N[C@@H](Cc2ccc3ccccc3c2)C(=O)N[C@@](C)(CCCCN)C(=O)N[C@@H](CCC(=O)O)C(=O)N[C@@H](CC(N)=O)C(=O)N[C@@H](CC(N)=O)C(N)=O)NC(=O)[C@H](CCC(N)=O)NC(=O)[C@H](Cc2c[nH]c3ccccc23)NC(=O)[C@H]([C@@H](C)O)NC(=O)[C@H](CCC(N)=O)NC1=O`: the half-life at 20 µM was less than 1 h in series [1] and 2 to 3 h in series [2].
On the same counts, the results for `CC(=O)NCCCC[C@H](NC(=O)C1(NC(=O)[C@H](Cc2ccc3ccccc3c2)NC(=O)[C@H](Cc2ccc(C(N)=O)cc2)NC(=O)[C@@H](NC(=O)[C@H](CCC(N)=O)NC(=O)[C@H](Cc2c[nH]c3ccccc23)NC(=O)[C@@H](NC(=O)[C@H](CC(N)=O)NC(=O)[C@@H](NC(C)=O)C(C)(C)S)[C@@H](C)O)C(C)(C)S)CCOCC1)C(=O)N[C@@H](CC(N)=O)C(=O)N[C@@H](CC(N)=O)C(N)=O` are greater than 6 h and 3 to 6 h.
On the same counts, the results for `CC(=O)NCCCC[C@H](NC(=O)C(C)(C)NC(=O)[C@H](Cc1ccc2ccccc2c1)NC(=O)[C@H](Cc1ccc(OCCN)cc1)NC(=O)[C@@H](NC(=O)[C@H](CCC(N)=O)NC(=O)[C@H](Cc1c[nH]c2ccccc12)NC(=O)[C@@H](NC(=O)[C@H](CC(N)=O)NC(=O)[C@@H](NC(=O)[C@@H](Cc1ccccc1)NC(C)=O)C(C)(C)S)[C@@H](C)O)C(C)(C)S)C(=O)N[C@@H](CC(N)=O)C(=O)NCCC(N)=O` are greater than 6 h and 3 to 6 h.
On to `COc1ccc(C[C@H](NC(=O)[C@@H]2CSCC[C@H](NC(C)=O)C(=O)N[C@@H](CCC(N)=O)C(=O)N[C@@H]([C@@H](C)O)C(=O)N[C@@H](Cc3c[nH]c4ccccc34)C(=O)N[C@@H](CCC(N)=O)C(=O)N2)C(=O)N[C@@H](Cc2ccc3ccccc3c2)C(=O)N[C@H](C(=O)N[C@@H](CCCCNC(C)=O)C(=O)N[C@@H](CC(N)=O)C(=O)NCC(N)=O)C2CCCCC2)cc1`, for which the half-life at 20 µM in series [1] is 2 to 6 h; in series [2], 3 to 6 h. The same compound displayed an IC50 on Interleukin-23 receptor [4] of 0.025 to 0.1 µM.
`COc1ccc(C[C@H](NC(=O)[C@@H](NC(=O)[C@H](CCC(N)=O)NC(=O)[C@H](Cc2c[nH]c3ccccc23)NC(=O)[C@@H](NC(=O)[C@H](CC(N)=O)NC(=O)[C@@H](NC(C)=O)C(C)(C)S)[C@@H](C)O)C(C)(C)S)C(=O)N[C@@H](Cc2ccc3ccccc3c2)C(=O)N[C@@](C)(CC(C)C)C(=O)N[C@@H](CCCCNC(C)=O)C(=O)N[C@@H](CC(N)=O)C(=O)N[C@@H](CC(N)=O)C(N)=O)cc1`: the half-life at 20 µM in series [1] and in series [2] was greater than 6 h throughout.
`COc1ccc(C[C@H](NC(=O)[C@@H](NC(=O)[C@H](CCC(N)=O)NC(=O)[C@H](Cc2c[nH]c3ccccc23)NC(=O)[C@@H](NC(=O)[C@H](CC(N)=O)NC(=O)[C@@H](NC(C)=O)C(C)(C)S)[C@@H](C)O)C(C)(C)S)C(=O)N[C@@H](Cc2ccc3ccccc3c2)C(=O)NC2(C(=O)N[C@@H](CCCCNC(C)=O)C(=O)N[C@@H](CC(N)=O)C(=O)N[C@@H](CC(N)=O)C(N)=O)CCCCC2)cc1`: the half-life at 20 µM was 3 to 6 h in series [1] and greater than 6 h in series [2].
